Experimental data from US20070259874A1, “Phosphodiesterase Inhibitors” (priority 2003, published 2007).

SMILES	melting point
COc1ccc(C2=NOC(C)(c3noc(-c4ccc(Cl)c(Cl)c4)n3)C2)cc1OC1CCCC1 (centres unmarked) [Compound No. 79, 3-[3-(3-Cyclopentyloxy-4-methoxyphenyl)-5-methyl-4,5-dihydro-isoxazol-5-yl]-5-(3,4-dichloro-phenyl)-[1,2,4]oxadiazole]	113.5 to 114.9 °C
COc1ccc(C2=NOC(C)(c3noc(C4CC4)n3)C2)cc1OC1CCCC1 (centres unmarked) [Compound No. 60, 3-[3-(3-Cyclopentyloxy-4-methoxyphenyl)-5-methyl-4,5-dihydro-isoxazol-5-yl]-5-cyclopropyl-[1,2,4]oxadiazole]	105 to 106 °C
COc1cccc(-c2nc(C3(C)CC(c4ccc(OC)c(OC5CCCC5)c4)=NO3)no2)c1 (centres unmarked) [Compound No. 74, 3-[3-(3-Cyclopentyloxy-4-methoxyphenyl)-5-methyl-4,5-dihydro-isoxazol-5-yl]-5-(3-methoxy-phenyl)-[1,2,4]oxadiazole]	121 to 122 °C

Continued, values first:

melting point	SMILES
122 °C	COc1ccc(C2=NOC(C)(c3noc(-c4ccccc4Cl)n3)C2)cc1OC1CCCC1 (centres unmarked) [Compound No. 76, 5-(2-Chlorophenyl)-3-[3-(3-cyclopentyloxy-4-methoxyphenyl)-5-methyl-4,5-dihydro-isoxazol-5-yl]-[1,2,4]oxadiazole]
138.5 to 139 °C	CCOc1ccccc1-c1nc(C2(C)CC(c3ccc(OC)c(OC4CCCC4)c3)=NO2)no1 (centres unmarked) [Compound No. 59, 3-[3-(3-Cyclopentyloxy-4-methoxyphenyl)-5-methyl-4,5-dihydro-isoxazol-5-yl]-5-(2-ethoxy-phenyl)-[1,2,4]oxadiazole]
